Patent US12472193B2, “Methods and compositions for treating and preventing respiratory related diseases and conditions with xylitol-headgroup lipid analogs” (National Jewish Health, priority 2017, dated 2025)
“Also recorded” adds a separate entry of the source.

Biological target: T1, TLR 9 (Mus musculus, UniProt Q9EQU3)
T1 construct: RAW264.7 cells secrete TNF-α in response to the TLR9 agonist CpG; endogenous in cells; host or cells: RAW264.7 (ATCC)
T1 sequence (Q9EQU3 26-1032): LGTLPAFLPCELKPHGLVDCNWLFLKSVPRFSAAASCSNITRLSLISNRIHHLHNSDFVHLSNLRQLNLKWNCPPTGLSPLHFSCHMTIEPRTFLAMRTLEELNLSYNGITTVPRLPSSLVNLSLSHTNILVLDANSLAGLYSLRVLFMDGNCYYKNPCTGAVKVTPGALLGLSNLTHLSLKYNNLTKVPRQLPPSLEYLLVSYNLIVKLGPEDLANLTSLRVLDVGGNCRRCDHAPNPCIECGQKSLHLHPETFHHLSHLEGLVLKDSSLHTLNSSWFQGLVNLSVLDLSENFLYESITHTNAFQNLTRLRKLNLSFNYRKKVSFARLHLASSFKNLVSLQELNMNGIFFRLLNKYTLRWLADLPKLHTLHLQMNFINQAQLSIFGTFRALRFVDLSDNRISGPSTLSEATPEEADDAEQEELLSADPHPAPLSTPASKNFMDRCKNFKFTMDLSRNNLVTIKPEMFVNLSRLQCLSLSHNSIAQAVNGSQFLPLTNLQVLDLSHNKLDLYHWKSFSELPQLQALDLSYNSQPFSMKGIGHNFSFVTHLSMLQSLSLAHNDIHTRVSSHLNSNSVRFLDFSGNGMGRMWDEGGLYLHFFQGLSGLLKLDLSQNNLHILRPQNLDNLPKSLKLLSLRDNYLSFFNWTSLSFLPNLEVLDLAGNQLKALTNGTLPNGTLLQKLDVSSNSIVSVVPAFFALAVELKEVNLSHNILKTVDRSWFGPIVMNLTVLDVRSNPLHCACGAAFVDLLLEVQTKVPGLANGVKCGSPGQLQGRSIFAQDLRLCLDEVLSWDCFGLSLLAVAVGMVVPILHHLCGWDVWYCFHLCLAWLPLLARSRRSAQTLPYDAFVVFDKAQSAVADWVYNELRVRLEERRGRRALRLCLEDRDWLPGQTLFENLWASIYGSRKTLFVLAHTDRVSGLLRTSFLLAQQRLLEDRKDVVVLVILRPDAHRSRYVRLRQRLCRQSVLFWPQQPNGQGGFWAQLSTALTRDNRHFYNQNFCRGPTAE
Assay: CpG-induced TNFα secretion by RAW264.7 cells (TLR 9 antagonism)
Assay type: cell-based
Conditions: for antagonism of TLR 9 activation (TNFα secretion): 5 μg/mL CpG, 100 μg/mL phospholipid, 5.5 hours; for TLR9 antagonist activity: reduction in cytokine secretion vs activating TLR ligand alone
Protocol: The mouse macrophage cell line, RAW264.7, was obtained from ATCC and maintained in DMEM, supplemented with 10% bovine growth serum and 1× penicillin streptomycin. Cells were maintained at 37° C. with 5% carbon dioxide: 95% air atmosphere within the incubator. Experiments were completed in a 96-well plate where cells were seated at a density of 1×10^5 cells per well, 24 prior to stimulation with TLR agonists and antagonists. Lipids were dried under a stream of nitrogen, hydrated with phosphate-buffered saline (PBS) at 37° C. for one hour, followed by water bath sonication to create liposomes. Each condition for cell stimulation and antagonism was prepared in DMEM in a separate tube and consisted of: control, TLR agonist, TLR agonist+lipid, and lipid alone. 100 μL aliquots of medium+agonists+antagonists were added to each well and incubated at 37° C. for 4 hours. Subsequently, the media were collected, diluted and an enzyme-linked immunosorbent assay (ELISA) was performed to quantify TNFα release by cells.
TLR 9 is another member of the intracellular TLRs found in the endosomal compartment. It detects unmethylated CpG sequences in DNA molecules commonly found among bacteria and DNA viruses (H. Hemmi, et al., “A Toll-like receptor recognizes bacterial DNA.,” Nature, vol. 408, no. 6813, pp. 740-5, December 2000; J. Lund, et al, “Toll-like receptor 9-mediated recognition of Herpes simplex virus-2 by plasmacytoid dendritic cells.,” J. Exp. Med., vol. 198, no. 3, pp. 513-20, August 2003). To test antagonism activity of PX lipids against TLR 9, RAW264.7 cells were stimulated for 5.5 hours with 5 μg/mL CpG in the absence or presence of 100 μg/mL phospholipid. […] The action of CpG is not affected by POPC, POPG, or many of the xylitol phospholipids, such as 14:0 DEPX, DSPX and 18:1 DEPX.

Structure (SMILES)	antagonism of TLR 9 activation (TNFα secretion)	TLR9 antagonist activity
CCCCCCCC/C=C\CCCCCCCC(=O)O[C@H](COC(=O)CCCCCCCCCCCCCCC)COP(=O)([O-])OCC[N+](C)(C)C [POPC, 1-palmitoyl-2-oleoyl-sn-glycero-3-phosphocholine, reference compound]	not affected	
CCCCCCCC/C=C\CCCCCCCC(=O)O[C@H](COC(=O)CCCCCCCCCCCCCCC)COP(=O)(O)OCC(O)CO (stereo partly drawn) [POPG, palmitoyl-oleoyl-phosphatidylglycerol, reference compound]	not affected	
CCCCCCCCC=CCCCCCCCCOCC(COP(=O)(O)OCC(O)C(O)C(O)CO)OCCCCCCCCC=CCCCCCCCC (mixture of isomers) [18:1 DEPX, sn-1-O-octadecenyl, sn-2-O-octadecenyl sn-3 glycerol phosphoxylitol]	not affected	
CCCCCCCC/C=C\CCCCCCCC(=O)O[C@H](COC(=O)CCCCCCCCCCCCCCC)COP(=O)(O)OCC(O)C(O)C(O)CO (stereo partly drawn) [POPX, sn-1-palmitoyl, sn-2-oleoyly sn-3 glycerol phosphoxylitol]	reduce the TNF-α secretion to control levels; also recorded: inhibits; also recorded: effective against TLR 9 activation; also recorded: only effective antagonists of TLR 9 activation	+ (cutoff being greater than a 50% reduction in cytokine secretion compared to activating TLR ligand alone)
CCCCCCCCC=CCCCCCCCC(=O)OCC(COP(=O)(O)OCC(O)C(O)C(O)CO)OC(=O)CCCCCCCC=CCCCCCCCC (mixture of isomers) [DOPX, sn-1-oleoyl, sn-2-oleoyl sn-3 glycerol phosphoxylitol]	reduce the TNF-α secretion to control levels; also recorded: inhibits; also recorded: effective against TLR 9 activation; also recorded: only effective antagonists of TLR 9 activation	+ (cutoff being greater than a 50% reduction in cytokine secretion compared to activating TLR ligand alone)
CCCCCCCCCCCCCC(=O)OC[C@H](COP(=O)(O)OCC(O)C(O)C(O)CO)OC(=O)CCCCCCCCCCCCC (mixture of isomers) [DMPX, sn-1-myristoyl, sn-2-myristoyl sn-3 glycerol phosphoxylitol]	acts as an agonist for TLR9 activation	
CCCCCCCCCCCCCCOC[C@H](COP(=O)(O)OCC(O)C(O)C(O)CO)OCCCCCCCCCCCCCC (mixture of isomers) [14:0 DEPX, sn-1-O-myristyl, sn-2-O-myristyl sn-3 glycerol phosphoxylitol]	not affected	
CCCCCCCCCCCCCCCCCC(=O)OCC(COP(=O)(O)OCC(O)C(O)C(O)CO)OC(=O)CCCCCCCCCCCCCCCCC (stereo not drawn) [DSPX, sn-1-stearoyl, sn-2-stearoyl sn-3 glycerol phosphoxylitol]	not affected	
CCCCCC=CCC=CCCCCCCCC(=O)OCC(COP(=O)(O)OCC(O)C(O)C(O)CO)OC(=O)CCCCCCCC=CCC=CCCCCC (mixture of isomers) [18:2 DLPX, sn-1-linoleoyl, sn-2-linoleoyl sn-3 glycerol phosphoxylitol]	effective against TLR 9 activation; also recorded: only effective antagonists of TLR 9 activation	+ (cutoff being greater than a 50% reduction in cytokine secretion compared to activating TLR ligand alone)
